From ChEMBL document CHEMBL3885881, “DrugMatrix”

Species on record: Rattus norvegicus
Assay: DrugMatrix - Regimen: Daily Repeat
Format: toxicity, organism-based, Sprague-Dawley
Design: regimen Daily Repeat, gender Male, age 6-8 weeks
Details: in vivo, po, route oral GAVAGE, […]; for ABSOLUTE BASOPHIL / ABSOLUTE EOSINOPHIL / ABSOLUTE LYMPHOCYTE / ABSOLUTE MONOCYTE / ABSOLUTE SEGMENTED NEUTROPHIL / BASOPHIL / EOSINOPHIL / ERYTHROCYTE COUNT / HEMATOCRIT / HEMOGLOBIN / LEUKOCYTE COUNT / LYMPHOCYTE / MEAN CORPUSCULAR HEMOGLOBIN / MEAN CORPUSCULAR HEMOGLOBIN CONCENTRATION / MEAN CORPUSCULAR VOLUME / MONOCYTE / NEUTROPHIL / NUCLEATED RED BLOOD CELLS / PLATELET COUNT: tissue Blood; for ALANINE AMINOTRANSFERASE / ALBUMIN / ALKALINE PHOSPHATASE / ASPARTATE AMINOTRANSFERASE / BLOOD UREA NITROGEN / CARBON DIOXIDE / CHLORIDE / CHOLESTEROL / CREATINE PHOSPHOKINASE / CREATININE / GLUCOSE / LACTATE DEHYDROGENASE / LIPASE / PHOSPHORUS / POTASSIUM / SODIUM / TOTAL BILIRUBIN / TOTAL PROTEIN / URIC ACID: tissue Plasma
[1] = 24 mg/kg, 72 h, dose level Low, time 3 day
[2] = 24 mg/kg, 120 h, dose level Low, time 5 day
[3] = 770 mg/kg, 72 h, dose level High, time 3 day
[4] = 770 mg/kg, 120 h, dose level High, time 5 day

With COc1c(N2CCNC(C)C2)c(F)cc2c(=O)c(C(=O)O)cn(C3CC3)c12 (configuration not stated) [GATIFLOXACIN] the “ABSOLUTE BASOPHIL” value [1] was 0 CELLS/uL, the “ABSOLUTE EOSINOPHIL” value [1] was 38.67 CELLS/uL and the “ABSOLUTE LYMPHOCYTE” value [1] was 12036 CELLS/uL. The “ABSOLUTE MONOCYTE” value [1] was 222.67 CELLS/uL, the “ABSOLUTE SEGMENTED NEUTROPHIL” value [1] was 769.33 CELLS/uL and the BASOPHIL [1] was 0%. For the same compound, the EOSINOPHIL [1] was 0.33%, the “ERYTHROCYTE COUNT” value [1] was 5.26 x10E6/uL and the HEMATOCRIT [1] was 34.07%. For the same compound, the HEMOGLOBIN [1] was 13.73 G/DL, the “LEUKOCYTE COUNT” value [1] was 13.07 x10E3/uL and the LYMPHOCYTE [1] was 92%. For the same compound, the “MEAN CORPUSCULAR HEMOGLOBIN” value [1] was 26.17 pg, the “MEAN CORPUSCULAR HEMOGLOBIN CONCENTRATION” value [1] was 40.3 G/DL and the “MEAN CORPUSCULAR VOLUME” value [1] was 64.87 fL. The MONOCYTE [1] was 1.67%, the NEUTROPHIL [1] was 6% and the “NUCLEATED RED BLOOD CELLS” value [1] was 0 /100WBC. The “PLATELET COUNT” value [1] was 1216.33 x10E3/uL, the “ALANINE AMINOTRANSFERASE” value [1] was 96.67 u/L and the ALBUMIN [1] was 4.1 G/DL. For the same compound, the “ALKALINE PHOSPHATASE” value [1] was 435.33 u/L, the “ASPARTATE AMINOTRANSFERASE” value [1] was 106.67 u/L and the “BLOOD UREA NITROGEN” value [1] was 15 mg/dL. For the same compound, the “CARBON DIOXIDE” value [1] was 24.67 mmol/L, the CHLORIDE [1] was 100.67 MEQ/L and the CHOLESTEROL [1] was 75 mg/dL. For the same compound, the “CREATINE PHOSPHOKINASE” value [1] was 818.33 u/L, the CREATININE [1] was 0.2 mg/dL and the GLUCOSE [1] was 183 mg/dL. For the same compound, the “LACTATE DEHYDROGENASE” value [1] was 221.67 u/L, the LIPASE [1] was 10.33 u/L and the PHOSPHORUS [1] was 13.13 mg/dL. For the same compound, the POTASSIUM [1] was 6.33 MEQ/L, the SODIUM [1] was 143.27 MEQ/L and the “TOTAL BILIRUBIN” value [1] was 0.17 mg/dL. The “TOTAL PROTEIN” value [1] was 5.77 G/DL, the “URIC ACID” value [1] was 1.7 mg/dL and the “ABSOLUTE BASOPHIL” value [2] was 0 CELLS/uL. The “ABSOLUTE EOSINOPHIL” value [2] was 0 CELLS/uL, the “ABSOLUTE LYMPHOCYTE” value [2] was 16055.67 CELLS/uL and the “ABSOLUTE MONOCYTE” value [2] was 361 CELLS/uL. For the same compound, the “ABSOLUTE SEGMENTED NEUTROPHIL” value [2] was 1450 CELLS/uL, the BASOPHIL [2] was 0% and the EOSINOPHIL [2] was 0%. For the same compound, the “ERYTHROCYTE COUNT” value [2] was 5.93 x10E6/uL, the HEMATOCRIT [2] was 37% and the HEMOGLOBIN [2] was 14.63 G/DL. The “LEUKOCYTE COUNT” value [2] was 17.87 x10E3/uL, the LYMPHOCYTE [2] was 90% and the “MEAN CORPUSCULAR HEMOGLOBIN” value [2] was 24.73 pg. The “MEAN CORPUSCULAR HEMOGLOBIN CONCENTRATION” value [2] was 39.57 G/DL, the “MEAN CORPUSCULAR VOLUME” value [2] was 62.47 fL and the MONOCYTE [2] was 2%. For the same compound, the NEUTROPHIL [2] was 8%, the “NUCLEATED RED BLOOD CELLS” value [2] was 0 /100WBC and the “PLATELET COUNT” value [2] was 1096 x10E3/uL. The “ALANINE AMINOTRANSFERASE” value [2] was 69 u/L, the ALBUMIN [2] was 4.2 G/DL and the “ALKALINE PHOSPHATASE” value [2] was 431.33 u/L. The “ASPARTATE AMINOTRANSFERASE” value [2] was 90.67 u/L, the “BLOOD UREA NITROGEN” value [2] was 13 mg/dL and the “CARBON DIOXIDE” value [2] was 27.67 mmol/L. For the same compound, the CHLORIDE [2] was 100.67 MEQ/L, the CHOLESTEROL [2] was 70.67 mg/dL and the “CREATINE PHOSPHOKINASE” value [2] was 342 u/L. The CREATININE [2] was 0.2 mg/dL, the GLUCOSE [2] was 149.33 mg/dL and the “LACTATE DEHYDROGENASE” value [2] was 413 u/L. The LIPASE [2] was 10.33 u/L, the PHOSPHORUS [2] was 11.8 mg/dL and the POTASSIUM [2] was 5.99 MEQ/L. The SODIUM [2] was 145.2 MEQ/L, the “TOTAL BILIRUBIN” value [2] was 0.2 mg/dL and the “TOTAL PROTEIN” value [2] was 5.97 G/DL. The “URIC ACID” value [2] was 1.43 mg/dL, the “ABSOLUTE BASOPHIL” value [3] was 0 CELLS/uL and the “ABSOLUTE EOSINOPHIL” value [3] was 0 CELLS/uL. The “ABSOLUTE LYMPHOCYTE” value [3] was 12067.33 CELLS/uL, the “ABSOLUTE MONOCYTE” value [3] was 215.33 CELLS/uL and the “ABSOLUTE SEGMENTED NEUTROPHIL” value [3] was 450.67 CELLS/uL. The BASOPHIL [3] was 0%, the EOSINOPHIL [3] was 0% and the “ERYTHROCYTE COUNT” value [3] was 6.18 x10E6/uL. For the same compound, the HEMATOCRIT [3] was 38.03%, the HEMOGLOBIN [3] was 15.1 G/DL and the “LEUKOCYTE COUNT” value [3] was 12.73 x10E3/uL. For the same compound, the LYMPHOCYTE [3] was 94.67%, the “MEAN CORPUSCULAR HEMOGLOBIN” value [3] was 24.5 pg and the “MEAN CORPUSCULAR HEMOGLOBIN CONCENTRATION” value [3] was 39.83 G/DL. The “MEAN CORPUSCULAR VOLUME” value [3] was 61.5 fL, the MONOCYTE [3] was 1.67% and the NEUTROPHIL [3] was 3.67%. For the same compound, the “NUCLEATED RED BLOOD CELLS” value [3] was 0 /100WBC, the “PLATELET COUNT” value [3] was 1233.67 x10E3/uL and the “ALANINE AMINOTRANSFERASE” value [3] was 57 u/L. The ALBUMIN [3] was 4.07 G/DL, the “ALKALINE PHOSPHATASE” value [3] was 327 u/L and the “ASPARTATE AMINOTRANSFERASE” value [3] was 64.33 u/L. The “BLOOD UREA NITROGEN” value [3] was 11 mg/dL, the “CARBON DIOXIDE” value [3] was 24.33 mmol/L and the CHLORIDE [3] was 103.67 MEQ/L. The CHOLESTEROL [3] was 37 mg/dL, the “CREATINE PHOSPHOKINASE” value [3] was 603.67 u/L and the CREATININE [3] was 0.29 mg/dL. For the same compound, the GLUCOSE [3] was 368.33 mg/dL, the “LACTATE DEHYDROGENASE” value [3] was 191.67 u/L and the LIPASE [3] was 8.67 u/L. For the same compound, the PHOSPHORUS [3] was 12.53 mg/dL, the POTASSIUM [3] was 6.44 MEQ/L and the SODIUM [3] was 143.43 MEQ/L. For the same compound, the “TOTAL BILIRUBIN” value [3] was 0.13 mg/dL, the “TOTAL PROTEIN” value [3] was 5.6 G/DL and the “URIC ACID” value [3] was 2.13 mg/dL. The “ABSOLUTE BASOPHIL” value [4] was 0 CELLS/uL, the “ABSOLUTE EOSINOPHIL” value [4] was 57.33 CELLS/uL and the “ABSOLUTE LYMPHOCYTE” value [4] was 15898 CELLS/uL. The “ABSOLUTE MONOCYTE” value [4] was 55 CELLS/uL, the “ABSOLUTE SEGMENTED NEUTROPHIL” value [4] was 1089.67 CELLS/uL and the BASOPHIL [4] was 0%. The EOSINOPHIL [4] was 0.33%, the “ERYTHROCYTE COUNT” value [4] was 6.68 x10E6/uL and the HEMATOCRIT [4] was 41.6%. For the same compound, the HEMOGLOBIN [4] was 16.5 G/DL, the “LEUKOCYTE COUNT” value [4] was 17.1 x10E3/uL and the LYMPHOCYTE [4] was 93%. For the same compound, the “MEAN CORPUSCULAR HEMOGLOBIN” value [4] was 24.7 pg, the “MEAN CORPUSCULAR HEMOGLOBIN CONCENTRATION” value [4] was 39.67 G/DL and the “MEAN CORPUSCULAR VOLUME” value [4] was 62.27 fL. The MONOCYTE [4] was 0.33%, the NEUTROPHIL [4] was 6.33% and the “NUCLEATED RED BLOOD CELLS” value [4] was 0 /100WBC. For the same compound, the “PLATELET COUNT” value [4] was 1161 x10E3/uL, the “ALANINE AMINOTRANSFERASE” value [4] was 71 u/L and the ALBUMIN [4] was 4 G/DL. For the same compound, the “ALKALINE PHOSPHATASE” value [4] was 300.33 u/L, the “ASPARTATE AMINOTRANSFERASE” value [4] was 74.33 u/L and the “BLOOD UREA NITROGEN” value [4] was 12.33 mg/dL. The “CARBON DIOXIDE” value [4] was 26.67 mmol/L, the CHLORIDE [4] was 99.67 MEQ/L and the CHOLESTEROL [4] was 30.67 mg/dL. The “CREATINE PHOSPHOKINASE” value [4] was 501.33 u/L, the CREATININE [4] was 0.29 mg/dL and the GLUCOSE [4] was 338.33 mg/dL. The “LACTATE DEHYDROGENASE” value [4] was 199 u/L, the LIPASE [4] was 8.67 u/L and the PHOSPHORUS [4] was 11.53 mg/dL. For the same compound, the POTASSIUM [4] was 6.37 MEQ/L, the SODIUM [4] was 141.3 MEQ/L and the “TOTAL BILIRUBIN” value [4] was 0.2 mg/dL. For the same compound, the “TOTAL PROTEIN” value [4] was 5.53 G/DL and the “URIC ACID” value [4] was 2.07 mg/dL.
